The structures appear in SMILES notation. Like-named read-outs stand apart in the source and are kept apart here.

We go through 26 compounds from publication PMC6111440, “Cyclin-Dependent Kinase (CDK) Inhibitors: Structure–Activity Relationships and Insights into the CDK-2 Selectivity of 6-Substituted 2-Arylaminopurines” (Journal of Medicinal Chemistry, 2016).

Experiment [1] has as its target T1, CDK2/A (Homo sapiens, UniProt P24941).
Protocol: (§1) Human CDK1/B was purchased from New England Biolabs or prepared as described,[46] CDK2/A2 was prepared as described,[46] CDK4/D was provided by AstraZeneca, and CDK7/H and CDK9/T were purchased from Upstate. IC50 values for CDK1/B, CDK2/A, and CDK4/D were determined as described.[23] IC50 values for CDK7/H and CDK9/H were determined according to the supplier’s instructions (Upstate).
For experiment [2], the target named is T2, Human CDK1/B (Homo sapiens, UniProt P06493).
T2 sequence (P06493 whole entry): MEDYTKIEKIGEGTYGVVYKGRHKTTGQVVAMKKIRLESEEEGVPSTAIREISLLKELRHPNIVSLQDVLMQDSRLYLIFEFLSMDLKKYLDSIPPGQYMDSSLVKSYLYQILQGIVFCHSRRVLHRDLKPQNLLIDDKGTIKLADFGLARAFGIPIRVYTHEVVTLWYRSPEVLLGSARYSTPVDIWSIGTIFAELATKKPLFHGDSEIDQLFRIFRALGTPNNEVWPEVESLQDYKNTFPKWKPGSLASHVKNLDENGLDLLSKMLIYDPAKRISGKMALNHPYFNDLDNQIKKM
T2 sequence (P14635 whole entry partner): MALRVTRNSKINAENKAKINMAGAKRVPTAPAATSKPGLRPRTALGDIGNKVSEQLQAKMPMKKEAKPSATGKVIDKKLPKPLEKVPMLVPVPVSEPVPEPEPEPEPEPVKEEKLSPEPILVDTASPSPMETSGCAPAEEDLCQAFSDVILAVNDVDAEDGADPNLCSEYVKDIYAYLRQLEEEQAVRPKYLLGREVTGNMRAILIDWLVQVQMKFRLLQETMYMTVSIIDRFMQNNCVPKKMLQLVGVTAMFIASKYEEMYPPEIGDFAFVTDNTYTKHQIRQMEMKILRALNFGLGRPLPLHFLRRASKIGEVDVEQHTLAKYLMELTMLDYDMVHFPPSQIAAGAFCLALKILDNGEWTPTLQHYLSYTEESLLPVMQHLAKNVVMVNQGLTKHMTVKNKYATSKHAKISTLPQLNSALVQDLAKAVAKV
Protocol: as §1
Experiment [3] deals with T3, CDK7/H (Homo sapiens, UniProt P50613).
T3 sequence (P50613 whole entry): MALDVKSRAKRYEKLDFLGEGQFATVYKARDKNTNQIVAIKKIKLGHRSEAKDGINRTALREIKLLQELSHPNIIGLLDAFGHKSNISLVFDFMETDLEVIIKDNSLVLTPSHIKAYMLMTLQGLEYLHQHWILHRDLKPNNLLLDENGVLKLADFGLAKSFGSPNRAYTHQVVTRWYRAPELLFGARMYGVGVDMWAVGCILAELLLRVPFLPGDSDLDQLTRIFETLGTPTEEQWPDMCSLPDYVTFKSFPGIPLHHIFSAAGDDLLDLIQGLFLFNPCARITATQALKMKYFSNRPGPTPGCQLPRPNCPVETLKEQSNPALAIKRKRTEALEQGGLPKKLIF
T3 sequence (P51946 whole entry partner): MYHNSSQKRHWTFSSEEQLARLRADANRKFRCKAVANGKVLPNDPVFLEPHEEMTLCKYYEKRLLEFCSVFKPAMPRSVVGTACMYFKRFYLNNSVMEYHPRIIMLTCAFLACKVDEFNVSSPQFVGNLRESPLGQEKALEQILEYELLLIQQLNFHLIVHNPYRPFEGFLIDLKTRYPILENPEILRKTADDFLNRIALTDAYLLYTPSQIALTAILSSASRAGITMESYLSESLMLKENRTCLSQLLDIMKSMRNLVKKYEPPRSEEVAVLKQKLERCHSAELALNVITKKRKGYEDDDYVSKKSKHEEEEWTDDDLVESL
T3 sequence (P51948 whole entry partner): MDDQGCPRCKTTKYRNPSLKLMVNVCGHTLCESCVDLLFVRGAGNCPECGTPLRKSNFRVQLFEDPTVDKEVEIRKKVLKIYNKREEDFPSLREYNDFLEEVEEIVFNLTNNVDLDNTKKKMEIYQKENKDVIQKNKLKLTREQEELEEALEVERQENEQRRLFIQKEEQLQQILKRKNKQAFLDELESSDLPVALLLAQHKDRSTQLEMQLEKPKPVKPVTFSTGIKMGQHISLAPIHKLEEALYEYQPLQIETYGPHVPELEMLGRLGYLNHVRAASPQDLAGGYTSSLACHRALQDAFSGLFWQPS
Protocol: as §1
In experiment [4] the target is T4, CDK9/T (Homo sapiens, UniProt P50750).
T4 sequence (P50750 whole entry): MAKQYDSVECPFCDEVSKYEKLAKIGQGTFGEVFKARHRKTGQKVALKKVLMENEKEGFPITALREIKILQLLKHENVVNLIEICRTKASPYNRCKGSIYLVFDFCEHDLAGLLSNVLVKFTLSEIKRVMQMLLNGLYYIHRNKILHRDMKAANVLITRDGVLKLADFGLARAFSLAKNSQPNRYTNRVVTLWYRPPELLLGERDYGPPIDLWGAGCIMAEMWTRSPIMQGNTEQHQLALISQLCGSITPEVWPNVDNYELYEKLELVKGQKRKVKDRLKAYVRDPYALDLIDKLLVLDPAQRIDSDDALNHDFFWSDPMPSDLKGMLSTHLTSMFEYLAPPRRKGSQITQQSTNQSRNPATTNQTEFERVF
T4 sequence (O60563 whole entry partner): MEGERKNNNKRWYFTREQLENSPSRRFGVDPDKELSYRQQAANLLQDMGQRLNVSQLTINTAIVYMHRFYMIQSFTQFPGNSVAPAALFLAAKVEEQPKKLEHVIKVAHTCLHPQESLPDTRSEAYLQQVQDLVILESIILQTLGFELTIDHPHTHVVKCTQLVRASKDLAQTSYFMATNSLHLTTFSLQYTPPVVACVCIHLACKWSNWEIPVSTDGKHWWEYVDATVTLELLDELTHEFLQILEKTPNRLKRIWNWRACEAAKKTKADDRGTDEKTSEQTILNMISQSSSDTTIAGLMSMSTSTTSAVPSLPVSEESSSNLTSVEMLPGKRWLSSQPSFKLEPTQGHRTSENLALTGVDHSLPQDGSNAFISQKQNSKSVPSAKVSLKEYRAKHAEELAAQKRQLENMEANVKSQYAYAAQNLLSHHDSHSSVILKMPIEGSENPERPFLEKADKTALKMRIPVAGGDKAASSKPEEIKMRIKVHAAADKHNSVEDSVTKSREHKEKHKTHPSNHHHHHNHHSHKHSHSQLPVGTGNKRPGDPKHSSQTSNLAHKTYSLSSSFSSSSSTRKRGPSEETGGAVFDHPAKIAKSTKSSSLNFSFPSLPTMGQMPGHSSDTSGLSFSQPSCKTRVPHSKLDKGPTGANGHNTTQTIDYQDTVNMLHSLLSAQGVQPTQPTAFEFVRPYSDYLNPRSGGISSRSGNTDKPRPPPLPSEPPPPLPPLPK
Protocol: as §1
The target of experiment [5] is T1, CDK2/A. Description: biochemical.
Protocol: as §1
In a further experiment the target is CDK4/D (Homo sapiens, UniProt P11802). Kind of experiment: biochemical. The conditions noted are these: for inhibition at 100 µM: read-out: CDK4/D % inhibition at 100 μM; for inhibition at 10 µM: read-out: CDK4 Inhibition at 10 μM (%).
CDK4/D, sequence (P11802 whole entry): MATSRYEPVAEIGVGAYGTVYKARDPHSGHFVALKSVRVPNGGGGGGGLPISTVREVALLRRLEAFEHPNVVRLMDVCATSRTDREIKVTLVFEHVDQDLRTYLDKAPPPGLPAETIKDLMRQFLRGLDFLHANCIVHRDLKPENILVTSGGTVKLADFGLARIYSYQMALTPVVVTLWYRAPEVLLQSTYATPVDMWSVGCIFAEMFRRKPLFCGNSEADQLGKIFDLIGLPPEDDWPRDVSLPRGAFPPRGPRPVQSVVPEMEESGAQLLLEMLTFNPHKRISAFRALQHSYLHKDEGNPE
CDK4/D, sequence (P24385 whole entry partner): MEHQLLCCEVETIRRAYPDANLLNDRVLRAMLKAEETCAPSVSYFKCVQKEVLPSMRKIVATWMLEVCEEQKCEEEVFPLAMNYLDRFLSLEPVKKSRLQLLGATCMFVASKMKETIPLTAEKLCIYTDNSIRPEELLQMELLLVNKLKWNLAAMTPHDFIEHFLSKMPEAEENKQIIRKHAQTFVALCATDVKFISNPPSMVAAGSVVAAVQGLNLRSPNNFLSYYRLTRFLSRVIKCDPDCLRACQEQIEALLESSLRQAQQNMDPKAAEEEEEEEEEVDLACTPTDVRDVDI
For experiment [6], the target named is T3, CDK7/H. Kind of experiment: biochemical. The conditions noted are these: for inhibition at 10 µM: read-out: CDK7 Inhibition at 10 μM (%).
Protocol: as §1
Experiment [7] has as its system Rb-proficient human tumor cell lines (A375, Calu-6, MDA-MB-231, SJSA1, SKUT-1B). Kind of experiment: 5-day growth inhibition SRB assay. The conditions noted are these: for GI50: Homo sapiens, 120 h. A general note: In SRB staining, fixed cells bind dye roughly in proportion to their protein.
Protocol: Dose–response curves and GI50 bar charts represent the mean ± SEM from three or four independent experiments.
The ability of selected compounds to inhibit cell growth was assessed in a panel of human cancer cell lines using an SRB assay.[45] […] At least three independent experiments were performed. Growth inhibitory GI50 values were calculated using GraphPad Prism software (GraphPad Software, Inc., San Diego, CA).
The target in experiment [8] is T5, CDK5 (Homo sapiens, UniProt Q00535). Description: biochemical. As to conditions: read-out: CDK5 Inhibition at 10 μM (%).
T5 sequence (Q00535 whole entry, species assumed): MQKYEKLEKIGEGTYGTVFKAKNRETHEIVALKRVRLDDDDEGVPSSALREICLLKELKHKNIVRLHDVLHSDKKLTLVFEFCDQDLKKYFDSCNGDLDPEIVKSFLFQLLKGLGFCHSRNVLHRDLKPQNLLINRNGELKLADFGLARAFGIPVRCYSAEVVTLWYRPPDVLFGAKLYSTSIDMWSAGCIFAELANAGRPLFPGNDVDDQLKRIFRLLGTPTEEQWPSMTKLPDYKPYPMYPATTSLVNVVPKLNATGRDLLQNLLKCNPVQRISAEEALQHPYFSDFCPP
T5 sequence (Q15078 99-307 partner limits assumed, species assumed): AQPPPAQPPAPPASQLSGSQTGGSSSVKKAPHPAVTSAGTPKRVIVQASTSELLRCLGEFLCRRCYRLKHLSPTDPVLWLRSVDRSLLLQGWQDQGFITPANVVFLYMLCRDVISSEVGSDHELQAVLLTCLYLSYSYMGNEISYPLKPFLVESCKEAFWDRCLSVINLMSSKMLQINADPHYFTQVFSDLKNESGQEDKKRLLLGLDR
Experiment [9] addresses T4, CDK9/T. Kind of experiment: biochemical. As to conditions: read-out: CDK9 Inhibition at 10 μM (%).
Protocol: as §1
Experiment [10] addresses T2, Human CDK1/B. Description: biochemical. The conditions noted are these: read-out: CDK1 Inhibition at 10 μM (%).
Protocol: as §1
Experiment [11] deals with T5, CDK5. As to conditions: read-out: CDK5 Inhibitory Activity IC50; Table 3.
Where [12] appears, read: read-out: CDK2 Inhibition IC50, Table 1, ATP 12.5 μM.
[13] abbreviates: read-out: CDK1/B IC50, Table 2, ATP 12.5 μM.
[14] abbreviates: read-out: CDK7/H IC50, Table 2, ATP 100 μM.
The mark [15] stands for this setting: read-out: CDK9/T IC50, Table 2, ATP 100 μM.
Setting [16] is: read-out: CDK2 Inhibitory Activity IC50, Table 3.
Where [17] appears, read: read-out: CDK1 Inhibitory Activity IC50, Table 3.
[18] abbreviates: read-out: CDK7 Inhibitory Activity IC50, Table 3.
[19] abbreviates: read-out: CDK9 Inhibitory Activity IC50, Table 3.
Setting [20] is: read-out: CDK2 Inhibition at 10 μM (%).

Protocol for CDK4/D: as §1

Consider `CCC(C)Oc1nc(Nc2ccc(S(N)(=O)=O)cc2)nc2[nH]cnc12` (racemic) [Compound 34], for which the IC50 was determined as 1.2 ± 0.5 nM on CDK2/A [1] (read-out: CDK2/A IC50, Table 2, ATP 12.5 μM); 1 ± 0.5 nM on CDK2/A [1] (setting [12]); 97 ± 40 nM on Human CDK1/B [2] (setting [13]); 2800 ± 100 nM at CDK7/H [3] (setting [14]); 570 ± 50 nM on CDK9/T [4] (setting [15]).

For the compound `Nc1nc2ncnc-2c[nH]1` [Compound 8, 2-Aminopurine, reference compound], the inhibition at 100 µM on CDK2/A [5] (read-out: CDK2 Inhibition (%) at 100 μM) was 4%.

Consider `c1ccc(Nc2ncc3nc[nH]c3n2)cc1` [Compound 12, Phenyl-(9H-purin-2-yl)amine], for which the IC50 at CDK2/A [1] (setting [12]) amounted to 61000 ± 100 nM.

As for `NS(=O)(=O)c1ccc(Nc2ncc3nc[nH]c3n2)cc1` [Compound 13, 4-(9H-Purin-2-ylamino)benzenesulfonamide], the “fold less active/potent than 3 against CDK2” value on CDK2/A [1] (compared with 3) was approximately 300 fold. Further, the IC50 is 1500 ± 100 nM on CDK2/A [1] (setting [12]), 15800 ± 1200 nM on Human CDK1/B [2] (setting [13]), 75000 ± 3000 nM on CDK7/H [3] (setting [14]) and 38000 ± 11000 nM at CDK9/T [4] (setting [15]). At CDK4/D, the inhibition at 100 µM was 12%.

Regarding `CC(C)[Si](C#Cc1nc(Nc2ccc(S(N)(=O)=O)cc2)nc2[nH]cnc12)(C(C)C)C(C)C` [Compound 40, 4-(6-((Triisopropylsilyl)ethynyl)-9H-purin-2-ylamino)benzenesulfonamide], the IC50 on CDK2/A [1] (setting [12]) came out at 17 ± 1 nM.

As to `CC#Cc1nc(Nc2ccccc2)nc2[nH]cnc12` [Compound 48, N-Phenyl-6-(prop-1-yn-1-yl)-9H-purin-2-amine], the IC50 at CDK2/A [1] (setting [12]) was found to be 6400 ± 400 nM.

Turning to `C(#Cc1nc(Nc2ccccc2)nc2[nH]cnc12)c1ccccc1` [Compound 49, N-Phenyl-6-(phenylethynyl)-9H-purin-2-amine], at CDK2/A [1] (setting [12]), the IC50 was found to be 8900 ± 700 nM.

On to `CCc1nc(Nc2ccc(S(N)(=O)=O)cc2)nc2[nH]cnc12` [Compound 52, 4-(6-Ethyl-9H-purin-2-ylamino)benzenesulfonamide], for which the “fold reduction of CDK2-inhibitory activity compared with 30” value at CDK2/A [1] (compared with 6-ethoxypurine 30) is on record as approximately 10 fold. At CDK2/A [1] (setting [12]), the IC50 is 220 ± 3 nM.

For `NS(=O)(=O)c1ccc(Nc2nc(C3CC3)c3nc[nH]c3n2)cc1` [Compound 55, 4-(6-Cyclopropyl-9H-purin-2-ylamino)benzenesulfonamide], the IC50 on CDK2/A [1] (setting [12]) was 19 ± 1 nM.

As to `NS(=O)(=O)c1ccc(Nc2nc(-c3ccccc3)c3nc[nH]c3n2)cc1` [Compound 70, 4-(6-Phenyl-9H-purin-2-ylamino)benzenesulfonamide], the IC50 on CDK2/A [1] (setting [12]) was determined as 24 ± 2 nM; at Human CDK1/B [2] (setting [13]), 730 ± 3 nM; on CDK7/H [3] (setting [14]), 6800 ± 400 nM; on CDK9/T [4] (setting [15]), 570 ± 40 nM.

For `COc1cccc(-c2nc(Nc3ccc(S(N)(=O)=O)cc3)nc3[nH]cnc23)c1` [Compound 71, 4-(6-(3-Methoxyphenyl)-9H-purin-2-ylamino)benzenesulfonamide], the IC50 on CDK2/A [1] (setting [12]) was 39 ± 13 nM.

With `COc1ccc(-c2nc(Nc3ccc(S(N)(=O)=O)cc3)nc3[nH]cnc23)cc1` [Compound 72, 4-(6-(4-Methoxyphenyl)-9H-purin-2-ylamino)benzenesulfonamide], the IC50 at CDK2/A [1] (setting [12]) stood at 52 ± 4 nM.

For `NS(=O)(=O)c1ccc(Nc2nc(-c3cccc(-c4ccccc4)c3)c3nc[nH]c3n2)cc1` [Compound 73, 4-((6-([1,1′-Biphenyl]-3-yl)-9H-purin-2-yl)amino)benzenesulfonamide], the “selectivity for CDK2 over CDK1” value on CDK2/A [1] (ratio of CDK1 and CDK2 IC50) is approximately 2000 fold. Also, the values for the IC50 at CDK2/A [1] (setting [12]), at Human CDK1/B [2] (setting [13]) and on CDK9/T [4] (setting [15]) were 44 ± 12 nM, 86000 ± 4000 nM and 25000 ± 8000 nM, respectively. Also, the inhibition at 100 µM at CDK4/D amounted to 26%; at CDK7/H [6] (read-out: CDK7/H % inhibition at 100 μM), 28%. For the same compound, the “effect on the growth of cells” value in experiment [7] (maximal concentration tested 30 μM, 5-day growth assay, GI50 could not be determined) was “no or limited effects”.

Consider `NS(=O)(=O)c1ccc(Nc2nc(-c3ccc4c(c3)OCO4)c3nc[nH]c3n2)cc1` [Compound 74, 4-(6-(Benzo[d][1,3]dioxol-5-yl)-9H-purin-2-ylamino)benzenesulfonamide], for which, on CDK2/A [1] (compared with 70), the “fold less potent than 70 (CDK2)” value is approximately 20 fold. For the same compound, the IC50 on CDK2/A [1] (setting [12]) was found to be 580 ± 20 nM.

For `NS(=O)(=O)c1ccc(Nc2nc(-c3cccc4c3oc3ccccc34)c3nc[nH]c3n2)cc1` [Compound 75, 4-(6-(4-Dibenzofuryl)-9H-purin-2-ylamino)benzenesulfonamide], on CDK2/A [1] (setting [12]), the IC50 is 1400 ± 200 nM.

Take `NS(=O)(=O)c1ccc(Nc2nc(-c3cccc4c3Sc3ccccc3S4)c3nc[nH]c3n2)cc1` [Compound 76]: on CDK2/A [1] (setting [12]), the IC50 was 6700 ± 500 nM.

For the compound `Nc1cc(OCC2CCCCC2)c2nc[nH]c2n1` [Compound 80, 7-(Cyclohexylmethoxy)-3H-imidazo[4,5-b]pyridin-5-amine], the IC50 on CDK2/A [1] (setting [16]) was found to be 28400 ± 800 nM.

Regarding `NS(=O)(=O)c1ccc(Nc2cc(OCC3CCCCC3)c3nc[nH]c3n2)cc1` [Compound 83, 4-((7-(Cyclohexylmethoxy)-3H-imidazo[4,5-b]pyridin-5-yl)amino) benzenesulfonamide], the results for the IC50 on CDK2/A [1] (setting [16]) and on Human CDK1/B [2] (setting [17]) were 290 ± 10 nM and 11000 ± 2000 nM, respectively. For the same compound, the inhibition at 10 µM at CDK4/D is 23 ± 1%; at CDK5 [8], 37%; at CDK7/H [6] it was 37%; on CDK9/T [9], 42%.

Take `Nc1nc(OCC2CCCCC2)c2nn[nH]c2n1` [Compound 86, 7-(Cyclohexylmethoxy)-3H-[1,2,3]triazolo[4,5-d]pyrimidin-5-amine]: the IC50 at CDK2/A [1] (setting [16]) was determined as 18000 ± 1000 nM. In addition, the inhibition at 10 µM is 21% at Human CDK1/B [10]; 6.2% on CDK4/D; 13% on CDK5 [8]; 13% at CDK7/H [6]; 16% on CDK9/T [9].

`Nc1nc(OCC2CCCCC2)c2cn[nH]c2n1` [Compound 87, 4-(Cyclohexylmethoxy)-1H-pyrazolo[3,4-d]pyrimidin-6-amine]: at CDK2/A [1] (setting [16]), the IC50 turned out to be 16000 ± 4000 nM. The inhibition at 10 µM came out at 32% on Human CDK1/B [10]; 0% on CDK4/D; 14% on CDK5 [8]; 16% at CDK7/H [6]; 16% at CDK9/T [9].

As for `NS(=O)(=O)c1ccc(Nc2nc(OCC3CCCCC3)c3nn[nH]c3n2)cc1` [Compound 90, 4-((7-(Cyclohexylmethoxy)-3H-[1,2,3]triazolo[4,5-d]pyrimidin-5-yl)amino) benzenesulfonamide], the IC50 was determined as 2 ± 0.1 nM at CDK2/A [1] (setting [16]); 750 ± 60 nM at Human CDK1/B [2] (setting [17]); 3300 ± 200 nM on CDK5 [11]; 6800 ± 700 nM on CDK7/H [3] (setting [18]); 750 ± 30 nM at CDK9/T [4] (setting [19]).

Consider `NS(=O)(=O)c1ccc(Nc2nc(OCC3CCCCC3)c3cn[nH]c3n2)cc1` [Compound 91, 4-((4-(Cyclohexylmethoxy)-1H-pyrazolo[3,4-d]pyrimidin-6-yl)amino)benzenesulfonamide], for which the figures for the IC50 at CDK5 [11], at CDK7/H [3] (setting [18]) and on CDK9/T [4] (setting [19]) were 5900 ± 100 nM, 7000 ± 300 nM and 4600 ± 200 nM, respectively. Also, in experiment [7], the GI50 lay within 1000 to 22000 nM.

With `Nc1nc(OCC2CCCCC2)c2cc[nH]c2n1` [Compound 93, 4-(Cyclohexylmethoxy)-7H-pyrrolo[2,3-d]pyrimidin-2-amine], the inhibition at 10 µM on CDK2/A [5] (read-out: CDK2 Inhibition (%) at 10 uM) was found to be 41 ± 10%; at Human CDK1/B [10], 11%; at CDK4/D, 5.6%; on CDK5 [8], 12%; at CDK7/H [6], 5.1%; on CDK9/T [9] it was 0%. Also, the inhibition at 100 µM at CDK2/A [5] (read-out: CDK2 Inhibition (%), value determined at 100 μM) came out at 41%.

With `NS(=O)(=O)c1ccc(Nc2nc(OCC3CCCCC3)c3cc[nH]c3n2)cc1` [Compound 98, 4-((4-(Cyclohexylmethoxy)-7H-pyrrolo[2,3-d]pyrimidin-2-yl)amino)benzenesulfonamide], the IC50 was determined as 26 ± 1 nM on CDK2/A [1] (setting [16]); 2700 ± 200 nM on Human CDK1/B [2] (setting [17]); 4400 ± 600 nM at CDK5 [11]; 4100 ± 200 nM on CDK7/H [3] (setting [18]); 1000 ± 200 nM on CDK9/T [4] (setting [19]). Moreover, the GI50 in experiment [7] was in the range of 1000 to 22000 nM.

Consider `c1ccc(Nc2cc(OCC3CCCCC3)n3ccnc3n2)cc1` [Compound 101, 5-Cyclohexylmethoxy-7-anilinoimidazo[1,2-a]pyrimidine], for which the inhibition at 10 µM at CDK2/A [5] (setting [20]) stood at 10%.

In the case of `NS(=O)(=O)c1ccc(Nc2cc(OCC3CCCCC3)n3ccnc3n2)cc1` [Compound 102, 5-Cyclohexylmethoxy-7-(4′-sulfamoylanilino)imidazo[1,2-a]pyrimidine], the inhibition at 10 µM at CDK2/A [5] (setting [20]) was 36%.

As usually defined, the GI50 is the concentration that inhibits growth by half.
